In ChEMBL document CHEMBL5226325, “Optimization of a Screening Hit toward M2912, an Oral Tankyrase Inhibitor with Antitumor Activity in Colorectal Cancer Models” (J Med Chem, 2021):
Activity calls are given as the source filed them. The rule behind the calls is not given here.

Columns and labels:
[1] = Toxicity in CB17-SCID mouse xenografted with human COLO 320 cells assessed as drug tolerance at 15 mg/kg, po administered twice daily via gavage for 20 days; format: organism-based; conditions: in vivo, 480 h, time 20 day
SW480 = assay: Cytotoxicity against human SW480 cells assessed as reduction in cell growth at 0.01 to 10 uM incubated for 14 days by resazurin dye based assay; format: functional; conditions: dose 0.01-10 µM, time 14.0 day
[2] = Hepatic blood flow in dog; format: ADME, Canis lupus familiaris
[3] = Modulation of Wnt/beta-catenin signaling pathway in human DLD-1 cells assessed as induction of AXIN2 accumulation incubated for 24 hrs by ELISA; format: cell-based; conditions: DLD-1, 24 h
[4] = Unbound fraction in dog plasma; format: ADME, cell-free, Canis lupus familiaris
[5] = molecular target: Protein mono-ADP-ribosyltransferase PARP14 (Homo sapiens, UniProt Q460N5); assay: Inhibition of N-terminal GST/6xHis/TEV-tagged human recombinant PARP14 (1470 to 1801 residues) expressed in Sf9 insect cells by chemiluminescence assay
[6] = Volume of distribution at steady state in dog; format: ADME, Canis lupus familiaris; conditions: in vivo, read-out: Vdss
CYP450 = CYP450 (Homo sapiens, UniProt P04798+P05177+P05181+P08684+P10632+P10635+P11509+P11712+P13584+P20813+P20815+P20853+P24462+P24903+P33260+P33261+P51589+P78329+P98187+Q02928+Q08477+Q16678+Q16696+Q5TCH4+Q6VVX0+Q7Z449+Q8TAV3+Q96SQ9+Q9HB55); assay: Inhibition of CYP450 (unknown origin); format: ADME, protein assay
[7] = Oral bioavailability in rat; format: ADME, organism-based; conditions: in vivo
[8] = Half life in monkey; format: ADME, Macaca mulatta; conditions: rhesus monkey, in vivo
[9] = Unbound fraction in monkey plasma; format: ADME, cell-free, Macaca mulatta; conditions: rhesus monkey
[10] = Half life in rat; format: ADME; conditions: in vivo
[11] = molecular target: Protein mono-ADP-ribosyltransferase PARP11 (Homo sapiens, UniProt Q9NR21); assay: Inhibition of N-terminal GST-tagged/C-terminal 6xHis-tagged human recombinant PARP11 (8 to 338 residues) expressed in Sf9 insect cells by chemiluminescence assay
Adenosine receptor A3 = Adenosine receptor A3 (Homo sapiens, UniProt P0DMS8); assay: Inhibition of A3 adenosine receptor (unknown origin); format: toxicity
[12] = Oral bioavailability in mouse; format: ADME, organism-based; conditions: in vivo
[13] = Hepatic blood flow in monkey; format: ADME, Macaca mulatta; conditions: rhesus monkey
[14] = molecular target: Sodium-dependent dopamine transporter (Homo sapiens, UniProt Q01959); assay: Inhibition of dopamine transporter (unknown origin); format: toxicity
[15] = molecular target: T1, Poly [ADP-ribose] polymerase 1 (Homo sapiens, UniProt P09874); assay: Inhibition of PARP-1 (unknown origin) using biotinylated NAD and NAD as substrate assessed as inhibition of auto-PARsylation incubated for 150 mins by TR-FRET assay
[16] = molecular target: Protein mono-ADP-ribosyltransferase PARP15 (Homo sapiens, UniProt Q460N3); assay: Inhibition of N-terminal GST-tagged human recombinant PARP15 (221 to 444 residues) expressed in Escherichia coli by chemiluminescence assay
[17] = molecular target: T1, Poly [ADP-ribose] polymerase 1; assay: Inhibition of N-terminal GST-tagged human recombinant PARP1 (2 to 1014 residues) expressed in Sf9 insect cells by chemiluminescence assay
COLO 320 = assay: Cytotoxicity against human COLO 320 cells assessed as reduction in cell growth incubated for 14 days by resazurin dye based assay; format: functional; conditions: time 14.0 day
[18] = molecular target: Protein mono-ADP-ribosyltransferase TIPARP (Homo sapiens, UniProt Q7Z3E1); assay: Inhibition of N-terminal FLAG-tagged human recombinant PARP7 (400 to 657 residues) expressed in Sf9 insect cells by chemiluminescence assay
DLD-1 = assay: Cytotoxicity against human DLD-1 cells assessed as reduction in cell growth at 0.01 to 10 uM incubated for 14 days by resazurin dye based assay; format: functional; conditions: dose 0.01-10 µM, time 14.0 day
[19] = molecular target: T2, Poly [ADP-ribose] polymerase tankyrase-2 (Homo sapiens, UniProt Q9H2K2); assay: Inhibition of TNKS2 (unknown origin) using biotinylated NAD as substrate assessed as inhibition of autoPARsylation activity incubated for 1 hr by ELISA
T2 sequence (Q9H2K2 whole entry): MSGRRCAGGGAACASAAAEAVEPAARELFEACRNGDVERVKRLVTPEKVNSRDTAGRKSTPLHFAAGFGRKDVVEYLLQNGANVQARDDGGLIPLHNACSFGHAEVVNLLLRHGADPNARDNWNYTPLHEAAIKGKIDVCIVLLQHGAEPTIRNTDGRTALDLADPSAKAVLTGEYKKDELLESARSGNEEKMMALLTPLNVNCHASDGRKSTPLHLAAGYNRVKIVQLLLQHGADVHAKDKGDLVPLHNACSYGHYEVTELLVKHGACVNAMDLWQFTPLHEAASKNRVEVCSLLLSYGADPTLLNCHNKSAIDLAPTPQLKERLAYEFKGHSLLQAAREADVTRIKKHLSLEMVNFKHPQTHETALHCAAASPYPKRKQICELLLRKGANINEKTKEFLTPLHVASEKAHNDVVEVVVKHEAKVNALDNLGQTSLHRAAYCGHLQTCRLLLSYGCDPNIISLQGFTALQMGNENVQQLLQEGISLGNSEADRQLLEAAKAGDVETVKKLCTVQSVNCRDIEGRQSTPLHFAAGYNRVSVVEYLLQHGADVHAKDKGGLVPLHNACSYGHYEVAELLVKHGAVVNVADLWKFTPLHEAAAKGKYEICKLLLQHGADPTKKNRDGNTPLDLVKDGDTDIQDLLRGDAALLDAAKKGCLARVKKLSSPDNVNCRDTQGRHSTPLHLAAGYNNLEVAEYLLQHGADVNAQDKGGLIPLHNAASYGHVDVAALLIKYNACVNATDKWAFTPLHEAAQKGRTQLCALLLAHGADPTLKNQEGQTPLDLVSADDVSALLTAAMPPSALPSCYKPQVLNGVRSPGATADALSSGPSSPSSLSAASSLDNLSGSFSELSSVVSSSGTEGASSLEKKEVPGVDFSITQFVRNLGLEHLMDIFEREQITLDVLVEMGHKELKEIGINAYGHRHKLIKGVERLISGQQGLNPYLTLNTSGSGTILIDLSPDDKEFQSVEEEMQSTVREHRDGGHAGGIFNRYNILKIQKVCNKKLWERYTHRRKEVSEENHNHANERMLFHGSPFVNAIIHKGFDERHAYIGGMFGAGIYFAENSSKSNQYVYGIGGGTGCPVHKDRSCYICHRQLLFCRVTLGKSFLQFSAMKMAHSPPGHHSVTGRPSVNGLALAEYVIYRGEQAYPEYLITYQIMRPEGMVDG

[20] = Hepatic blood flow in mouse; format: ADME, organism-based
[21] = Hepatic blood flow in rat; format: ADME
[22] = Unbound fraction in rat plasma; format: ADME, cell-free
[23] = Unbound fraction in mouse plasma; format: ADME, cell-free
[24] = Volume of distribution at steady state in rat; format: ADME; conditions: in vivo, read-out: Vdss
[25] = Oral bioavailability in monkey; format: ADME, organism-based, Macaca mulatta; conditions: rhesus monkey, in vivo
[26] = molecular target: Protein mono-ADP-ribosyltransferase PARP10 (Homo sapiens, UniProt Q53GL7); assay: Inhibition of human PARP10 by chemiluminescence assay

T1 sequence (P09874 whole entry, the tested form may be a part): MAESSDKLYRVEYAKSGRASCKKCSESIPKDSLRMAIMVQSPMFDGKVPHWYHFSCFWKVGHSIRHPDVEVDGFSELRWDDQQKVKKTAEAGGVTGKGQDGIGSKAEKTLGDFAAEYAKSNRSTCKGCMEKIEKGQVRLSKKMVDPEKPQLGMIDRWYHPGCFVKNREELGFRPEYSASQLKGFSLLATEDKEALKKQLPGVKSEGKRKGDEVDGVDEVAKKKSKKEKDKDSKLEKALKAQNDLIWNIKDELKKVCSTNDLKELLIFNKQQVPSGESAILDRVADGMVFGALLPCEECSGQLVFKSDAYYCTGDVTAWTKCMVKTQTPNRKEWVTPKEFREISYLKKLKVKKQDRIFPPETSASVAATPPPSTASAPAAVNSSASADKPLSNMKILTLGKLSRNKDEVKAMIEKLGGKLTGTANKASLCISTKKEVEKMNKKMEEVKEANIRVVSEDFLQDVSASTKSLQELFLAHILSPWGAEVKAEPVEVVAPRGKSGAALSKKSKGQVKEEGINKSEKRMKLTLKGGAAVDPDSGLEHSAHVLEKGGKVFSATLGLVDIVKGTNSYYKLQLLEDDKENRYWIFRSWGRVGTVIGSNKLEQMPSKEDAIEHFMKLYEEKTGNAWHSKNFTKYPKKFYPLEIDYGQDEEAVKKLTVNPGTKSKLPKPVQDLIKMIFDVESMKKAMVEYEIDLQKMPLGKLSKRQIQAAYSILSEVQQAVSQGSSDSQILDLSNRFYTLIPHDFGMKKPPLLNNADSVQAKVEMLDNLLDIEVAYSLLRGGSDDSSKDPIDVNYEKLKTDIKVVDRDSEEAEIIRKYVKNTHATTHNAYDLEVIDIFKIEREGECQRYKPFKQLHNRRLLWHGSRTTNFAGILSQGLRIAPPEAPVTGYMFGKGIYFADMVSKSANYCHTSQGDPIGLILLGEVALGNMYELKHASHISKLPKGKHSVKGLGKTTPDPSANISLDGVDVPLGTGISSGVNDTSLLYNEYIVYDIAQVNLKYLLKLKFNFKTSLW
Sequence of Protein mono-ADP-ribosyltransferase PARP15 (Q460N3 whole entry, looked up, the tested form may be a part): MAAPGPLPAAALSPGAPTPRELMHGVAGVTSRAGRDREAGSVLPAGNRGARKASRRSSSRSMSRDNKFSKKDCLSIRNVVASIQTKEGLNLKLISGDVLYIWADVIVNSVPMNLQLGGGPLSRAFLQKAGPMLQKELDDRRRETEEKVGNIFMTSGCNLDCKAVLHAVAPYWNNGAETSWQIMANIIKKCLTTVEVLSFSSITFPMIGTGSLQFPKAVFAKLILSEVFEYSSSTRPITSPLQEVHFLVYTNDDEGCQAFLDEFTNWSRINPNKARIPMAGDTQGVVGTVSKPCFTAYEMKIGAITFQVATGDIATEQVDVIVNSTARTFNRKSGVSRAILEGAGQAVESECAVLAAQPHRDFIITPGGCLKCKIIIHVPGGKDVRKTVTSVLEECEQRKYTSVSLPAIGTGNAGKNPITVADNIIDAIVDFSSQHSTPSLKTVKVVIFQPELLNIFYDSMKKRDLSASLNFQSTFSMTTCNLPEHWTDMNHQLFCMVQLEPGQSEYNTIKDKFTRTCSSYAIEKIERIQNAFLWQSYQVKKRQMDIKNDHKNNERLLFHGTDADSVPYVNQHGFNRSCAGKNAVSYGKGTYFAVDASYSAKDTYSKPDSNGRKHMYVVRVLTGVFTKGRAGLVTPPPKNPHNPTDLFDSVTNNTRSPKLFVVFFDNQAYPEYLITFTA
Sequence of Protein mono-ADP-ribosyltransferase TIPARP (Q7Z3E1 whole entry, the tested form may be a part): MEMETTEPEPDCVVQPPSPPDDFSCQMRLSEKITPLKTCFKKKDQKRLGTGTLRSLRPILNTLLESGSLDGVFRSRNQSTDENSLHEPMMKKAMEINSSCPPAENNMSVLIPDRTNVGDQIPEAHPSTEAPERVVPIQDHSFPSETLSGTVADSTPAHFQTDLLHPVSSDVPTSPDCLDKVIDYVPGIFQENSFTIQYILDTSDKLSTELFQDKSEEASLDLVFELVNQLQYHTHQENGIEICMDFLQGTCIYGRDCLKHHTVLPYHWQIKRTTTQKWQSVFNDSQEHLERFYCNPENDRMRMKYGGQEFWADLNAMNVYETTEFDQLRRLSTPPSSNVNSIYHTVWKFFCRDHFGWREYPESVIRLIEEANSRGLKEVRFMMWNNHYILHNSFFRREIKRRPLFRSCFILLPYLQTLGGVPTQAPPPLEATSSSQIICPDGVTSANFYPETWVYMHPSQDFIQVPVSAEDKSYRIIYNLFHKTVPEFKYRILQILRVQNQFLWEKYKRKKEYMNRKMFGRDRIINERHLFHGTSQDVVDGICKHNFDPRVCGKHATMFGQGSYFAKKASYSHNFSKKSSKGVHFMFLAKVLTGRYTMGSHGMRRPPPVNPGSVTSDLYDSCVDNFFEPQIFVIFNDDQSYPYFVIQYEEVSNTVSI
Sequence of Adenosine receptor A3 (P0DMS8 whole entry): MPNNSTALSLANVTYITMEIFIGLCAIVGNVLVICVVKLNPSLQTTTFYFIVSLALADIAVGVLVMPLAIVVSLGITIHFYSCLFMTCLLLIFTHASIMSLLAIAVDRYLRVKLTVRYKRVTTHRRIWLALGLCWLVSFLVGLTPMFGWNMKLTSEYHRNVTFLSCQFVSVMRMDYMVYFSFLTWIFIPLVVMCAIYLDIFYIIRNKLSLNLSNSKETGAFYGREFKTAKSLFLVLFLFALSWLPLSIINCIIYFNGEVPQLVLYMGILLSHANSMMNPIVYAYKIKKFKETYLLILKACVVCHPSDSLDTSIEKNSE
Sequence of Protein mono-ADP-ribosyltransferase PARP14 (Q460N5 whole entry, the tested form may be a part): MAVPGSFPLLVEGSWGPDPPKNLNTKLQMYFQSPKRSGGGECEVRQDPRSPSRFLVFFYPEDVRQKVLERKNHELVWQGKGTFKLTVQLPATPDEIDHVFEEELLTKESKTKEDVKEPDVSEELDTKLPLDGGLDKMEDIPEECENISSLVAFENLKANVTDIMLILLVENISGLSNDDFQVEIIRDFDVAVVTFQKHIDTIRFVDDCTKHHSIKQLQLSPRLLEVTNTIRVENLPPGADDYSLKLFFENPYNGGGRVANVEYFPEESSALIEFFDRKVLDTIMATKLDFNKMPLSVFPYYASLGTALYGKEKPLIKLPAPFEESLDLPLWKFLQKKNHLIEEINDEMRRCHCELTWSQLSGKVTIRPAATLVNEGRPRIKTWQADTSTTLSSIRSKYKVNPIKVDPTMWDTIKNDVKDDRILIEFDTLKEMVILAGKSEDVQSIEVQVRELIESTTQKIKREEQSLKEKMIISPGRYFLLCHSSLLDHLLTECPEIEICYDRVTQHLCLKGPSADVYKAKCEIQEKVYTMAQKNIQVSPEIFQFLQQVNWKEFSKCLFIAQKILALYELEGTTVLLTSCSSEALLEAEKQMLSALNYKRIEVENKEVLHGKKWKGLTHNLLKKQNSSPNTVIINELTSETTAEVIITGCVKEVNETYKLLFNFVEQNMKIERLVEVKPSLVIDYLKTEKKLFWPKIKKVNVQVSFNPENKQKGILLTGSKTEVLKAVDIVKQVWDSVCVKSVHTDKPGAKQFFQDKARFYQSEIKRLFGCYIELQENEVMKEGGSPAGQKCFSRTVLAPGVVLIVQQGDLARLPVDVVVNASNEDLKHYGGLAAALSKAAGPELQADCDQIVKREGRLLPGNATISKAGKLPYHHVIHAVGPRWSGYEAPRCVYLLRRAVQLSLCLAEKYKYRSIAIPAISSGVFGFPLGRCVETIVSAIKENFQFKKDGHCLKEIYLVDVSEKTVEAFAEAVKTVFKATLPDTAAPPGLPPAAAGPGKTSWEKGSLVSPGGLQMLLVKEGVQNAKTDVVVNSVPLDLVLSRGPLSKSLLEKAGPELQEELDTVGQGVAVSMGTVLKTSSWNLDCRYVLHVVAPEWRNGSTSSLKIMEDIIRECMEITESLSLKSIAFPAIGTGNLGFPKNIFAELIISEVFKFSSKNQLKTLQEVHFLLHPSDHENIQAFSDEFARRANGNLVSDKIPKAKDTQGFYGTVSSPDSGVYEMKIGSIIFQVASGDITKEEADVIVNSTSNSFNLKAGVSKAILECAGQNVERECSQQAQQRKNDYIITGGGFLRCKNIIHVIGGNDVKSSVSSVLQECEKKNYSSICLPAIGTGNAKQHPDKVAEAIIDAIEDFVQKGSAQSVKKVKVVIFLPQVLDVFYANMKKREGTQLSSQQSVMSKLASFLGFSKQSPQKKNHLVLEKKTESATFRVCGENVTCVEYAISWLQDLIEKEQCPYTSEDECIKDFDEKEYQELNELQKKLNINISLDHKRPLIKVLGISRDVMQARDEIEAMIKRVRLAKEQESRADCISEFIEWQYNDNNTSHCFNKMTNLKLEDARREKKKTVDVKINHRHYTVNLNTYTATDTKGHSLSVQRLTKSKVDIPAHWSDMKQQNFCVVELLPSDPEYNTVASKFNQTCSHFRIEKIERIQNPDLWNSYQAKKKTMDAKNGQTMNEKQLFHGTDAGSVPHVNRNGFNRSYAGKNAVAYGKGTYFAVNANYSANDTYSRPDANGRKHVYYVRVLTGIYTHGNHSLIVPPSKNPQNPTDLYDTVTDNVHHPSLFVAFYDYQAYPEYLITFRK
Sequence of Protein mono-ADP-ribosyltransferase PARP11 (Q9NR21 whole entry, the tested form may be a part): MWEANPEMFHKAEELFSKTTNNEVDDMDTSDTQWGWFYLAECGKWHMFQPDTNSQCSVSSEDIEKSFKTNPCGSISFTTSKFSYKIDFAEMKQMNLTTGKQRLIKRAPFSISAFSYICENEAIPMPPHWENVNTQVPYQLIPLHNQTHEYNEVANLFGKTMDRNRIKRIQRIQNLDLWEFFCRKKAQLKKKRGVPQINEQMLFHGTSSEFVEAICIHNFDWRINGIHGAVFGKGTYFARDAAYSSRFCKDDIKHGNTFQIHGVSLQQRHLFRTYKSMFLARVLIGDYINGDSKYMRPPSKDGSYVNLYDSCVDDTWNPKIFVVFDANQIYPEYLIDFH

- QH [2]: 130%
- EC50 [3]: 16 nM
- fraction unbound [4]: 0.14
- IC50 [5]: > 10000 nM
- Vd [6]: 2.17 L/kg
- IC50 (CYP450): > 50000 nM
- bioavailability [7]: 41%
- half-life [8]: 60.6 min
- fraction unbound [9]: 0.21
- half-life [10]: 20.4 min
- IC50 [11]: 67 nM
- bioavailability [12]: 77%
- QH [13]: 99%
- IC50 [15]: 928 nM
- IC50 [16]: > 10000 nM
- IC50 [17]: 140 nM
- IC50 [18]: 330 nM
- IC50 [19]: 0.9 nM
- QH [20]: 50%
- QH [21]: 56%
- fraction unbound [22]: 0.13
- fraction unbound [23]: 0.16
- Vd [24]: 0.91 L/kg
- bioavailability [25]: 6.7%
- IC50 [26]: 2900 nM
Compound: Cc1ccc2c(=O)[nH]c(-c3ccc(C(C)(C)O)cc3)cn12
- Activity [1]: Non-Toxic
- Activity (SW480): inactive
- IC50 (Adenosine receptor A3): 10000 nM
- IC50 [14]: 19000 nM
- Activity (COLO 320): Dose-Dependent Effect
- Activity (DLD-1): inactive
